From ChEMBL document CHEMBL1201862, “PubChem BioAssay data set” (2004)
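Test compounds were applied to cells in 96-well plates for 48 hours at 5 doses. At the GI50, growth is halved.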 Activity calls are given as the source filed them. No stated cut-off is given here; in the data, active = GI50 up to about 1.1 µM and inactive = higher.

Key:
Assay in all cases: inhibition of tumour cell growth, NCI panel, 48 h
MDA-MB-435 = system: MDA-MB-435
BT-549 = system: BT-549
SW-620 = system: SW-620
COLO 205 = system: COLO 205
UACC-62 = system: UACC-62
SK-MEL-5 = system: SK-MEL-5
OVCAR-5 = system: OVCAR-5
SN12C = system: SN12C
HOP-62 = system: HOP-62
SF-268 = system: SF-268
DU-145 = system: DU-145
HL-60 = system: HL-60
MCF7 = system: MCF7
NCI-H522 = system: NCI-H522
MDA-MB-231 = system: MDA-MB-231
TK-10 = system: TK-10
KM12 = system: KM12
SF-539 = system: SF-539

Measured: GI50

COc1ccc(-n2c(C)nc3ccc(NC4OC(COC(C)=O)C(OC(C)=O)C(OC(C)=O)C4OC(C)=O)cc3c2=O)cc1 (stereo not given)
inactive: MDA-MB-435 > 100 µM | BT-549 > 100 µM | SW-620 39.1 µM | COLO 205 18.6 µM | UACC-62 67 µM | SK-MEL-5 > 100 µM | OVCAR-5 > 100 µM | SN12C 32 µM | HOP-62 > 100 µM | SF-268 > 100 µM | DU-145 > 100 µM | HL-60 20.3 µM | MCF7 45.9 µM | NCI-H522 21.8 µM | MDA-MB-231 > 100 µM | TK-10 55.1 µM | KM12 > 100 µM

N#C/C(N)=C(C#N)/N=C/Nc1ccc(N)cc1
inactive: MDA-MB-435 > 100 µM | BT-549 > 100 µM | SW-620 > 100 µM | SF-539 > 100 µM | COLO 205 > 100 µM | UACC-62 > 100 µM | SK-MEL-5 29.2 µM | OVCAR-5 > 100 µM | SN12C > 100 µM | HOP-62 > 100 µM | SF-268 > 100 µM | DU-145 > 100 µM | HL-60 30.3 µM | MCF7 96.6 µM | NCI-H522 > 100 µM | MDA-MB-231 > 100 µM | TK-10 > 100 µM | KM12 > 100 µM

C=C(CCOC)CCC1CCCCC/C1=N\N(C)C (stereo not given)
inactive: MDA-MB-435 > 100 µM | BT-549 > 100 µM | SW-620 > 100 µM | COLO 205 > 100 µM | UACC-62 > 100 µM | SK-MEL-5 > 100 µM | OVCAR-5 > 100 µM | SN12C > 100 µM | HOP-62 > 100 µM | SF-268 > 100 µM | DU-145 > 100 µM | HL-60 > 100 µM | MCF7 > 100 µM | NCI-H522 > 100 µM | MDA-MB-231 > 100 µM | KM12 > 100 µM

CC/C=C/C[C@H](O)[C@H]1C[C@H]2O[C@H](CC(=O)OC)C[C@H]2O1
inactive: MDA-MB-435 > 100 µM | BT-549 > 100 µM | SW-620 > 100 µM | COLO 205 > 100 µM | UACC-62 > 100 µM | SK-MEL-5 > 100 µM | OVCAR-5 > 100 µM | SN12C > 100 µM | HOP-62 > 100 µM | SF-268 > 100 µM | DU-145 > 100 µM | HL-60 > 100 µM | MCF7 > 100 µM | NCI-H522 > 100 µM | MDA-MB-231 > 100 µM | KM12 > 100 µM

N#CCCN(CCCCN(CCC#N)C(=O)Nc1ccccc1)C(=O)Nc1ccccc1
inactive: MDA-MB-435 > 100 µM | BT-549 > 100 µM | SW-620 > 100 µM | COLO 205 > 100 µM | UACC-62 > 100 µM | SK-MEL-5 > 100 µM | OVCAR-5 > 100 µM | SN12C > 100 µM | HOP-62 > 100 µM | SF-268 > 100 µM | DU-145 > 100 µM | HL-60 > 100 µM | MCF7 > 100 µM | NCI-H522 > 100 µM | MDA-MB-231 > 100 µM | KM12 > 100 µM

CC(C)(C)C(=O)N(C(=S)OCc1ccccn1)c1ccccc1
inactive: MDA-MB-435 > 100 µM | BT-549 42.1 µM | SW-620 47.6 µM | SF-539 20.4 µM | COLO 205 21.8 µM | UACC-62 63 µM | SK-MEL-5 20 µM | OVCAR-5 32.4 µM | SN12C 31.3 µM | HOP-62 13.2 µM | SF-268 36.1 µM | DU-145 38.6 µM | HL-60 19.9 µM | MCF7 19.8 µM | MDA-MB-231 31 µM | TK-10 > 100 µM | KM12 26.4 µM
